In US12157750B2, “Bright targetable red CA2+ indicators” (HOWARD HUGHES MEDICAL INSTITUTE, priority 2019, dated 2024):
Where “and” joins values, the source holds several entries; their conditions need not be identical. Equal entries are not always repeated. Where two headings read alike, the source gives them in different places.

Tests used:
[1] = UV-Vis and fluorescence spectroscopy; assay type: physicochemical; conditions: in vitro; for λmax: first value of λmax/λem; for λem: second value of λmax/λem
Description: (§1) All measurements were taken at ambient temperature (23±2° C.). […] Spectroscopy was performed using 1-cm path length quartz cuvettes (Starna). Absorption measurements were recorded on a Cary Model 100 spectrometer (Varian). Fluorescence measurements spectra were recorded on a Cary Eclipse fluorometer (Varian). Images were processed in ImageJ/Fiji. Data was analyzed and graphs were plotted using Prism (GraphPad). Movie renderings were done using Imaris (Bitplane)
(§2) Example 15: UV-Vis and Fluorescence Spectroscopy, Kd Determination. UV-Vis and fluorescence spectra were measured in a commercial EGTA buffer system (Invitrogen) following the associated protocol. […] For calcium titrations of the HaloTag ligands in the presence of HaloTag protein, the dye was incubated with 1.5 eq of purified HaloTag protein ([…] solution in 75 mM NaCl, 50 mM Tris-HCl, pH 7.4) for 1 h at room temperature. Calcium titrations were then performed using the commercial EGTA buffer system to which 0.1 mg·mL^−1 CHAPS was added. All the calcium titrations were performed in duplicate.

[2] = Calcium titrations in EGTA buffer system (ΔF/F0, Kd determination); assay type: binding; conditions: for ΔF/F0: Ca2+-dependent change in fluorescence over baseline; for Kd: in vitro Ca2+ binding
Description: as §1, §2

[3] = Quantum yield determination; assay type: physicochemical; conditions: fluorescence quantum yield at saturating Ca2+
Description: Example 16: Quantum Yield Determination. Absolute quantum yields (Φ) were measured using a Quantaurus-QY spectrometer (model C11374) from Hamamatsu. This instrument uses an integrating sphere to determine photons absorbed and emitted by a sample. Measurements were carried out using dilute samples (A<0.1) and self-absorption corrections were performed using the instrument software.^27

[4] = tested on: Primary rat hippocampal neurons; assay: Calcium indicators characterization in primary neuron culture (evoked action potentials); assay type: cell-based; conditions: for ΔF/F0, single AP: 1 AP
Description: Synaptic blockers (10 μM CNQX, 10 μM CPP, 10 μM GABAZINE, and 1 mM MCPG) were added to block ionotropic glutamate, GABA, and metabotropic glutamate receptors.^21 Each measurement was performed on 3 to 5 wells replicates.
Wide-field imaging was performed on an inverted Nikon Eclipse Ti2 microscope equipped with a SPECTRA X light engine (Lumencore), 20× objective (NA=0.75, Nikon), and imaged onto a scientific CMOS camera (Hamamatsu ORCA-Flash 4.0). […] A quad bandpass filter (set number: 89000, Chroma) was used along with the appropriate color band from the SPECTRA X light source to image 13AM.

[5] = target: HaloTag protein (Rhodococcus rhodochrous, UniProt P0A3G2, A155T/A167V/A172T/A224E/C128F/C176G/D78G/E160K/E257K/H272N/K175M/K195N/L47V/L88M/N227D/P291S/S2A/S58T/T264A/Y273L/Y87F); assay: Calcium titrations in the presence or absence of excess HaloTag protein; assay type: biochemical; conditions: in vitro; saturating [Ca2+]
Sequence of HaloTag protein (P0A3G2 other isoform, or with tags, fused parts or gaps with the stated changes): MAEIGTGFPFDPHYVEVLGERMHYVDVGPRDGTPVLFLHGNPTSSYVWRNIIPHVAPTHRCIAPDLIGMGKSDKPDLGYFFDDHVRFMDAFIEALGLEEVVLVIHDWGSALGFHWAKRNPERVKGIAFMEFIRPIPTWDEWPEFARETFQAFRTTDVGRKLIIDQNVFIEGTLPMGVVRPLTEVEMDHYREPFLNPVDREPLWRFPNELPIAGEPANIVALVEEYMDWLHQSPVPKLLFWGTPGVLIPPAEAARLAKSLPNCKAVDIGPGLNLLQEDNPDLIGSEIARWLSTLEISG
Description: as §2

[6] = known indicator, cited from earlier work
[7] = known indicator, literature value (ref. 15); saturating Ca2+; cited from earlier work
[8] = known indicator, literature value (ref. 15); cited from earlier work
[9] = tested on: cultured neurons expressing NES-HaloTag-GFP; conditions: cells expressing NES-HaloTag-GFP; same imaging conditions; normalized to GFP
Description: Primary rat hippocampal neurons were prepared as described previously and infected with AAV viruses.^1 Stock solutions of the different calcium indicators were prepared at C=1 mM in DMSO containing 20% Pluronic F-127. Cultured neurons were incubated with the cell-permeant sensors at 37° C. for 30 min (7AM and Calcium Orange-AM) or 2 h (12AM and 13AM) before washing twice with imaging buffer containing the following: 145 mM NaCl, 2.5 mM KCl, 10 mM glucose, 10 mM HEPES, pH 7.4, 2 mM CaCl2), 1 mM MgCl2. Synaptic blockers (10 μM CNQX, 10 μM CPP, 10 μM GABAZINE, and 1 mM MCPG) were added to block ionotropic glutamate, GABA, and metabotropic glutamate receptors.^21 Each measurement was performed on 3 to 5 wells replicates.
Wide-field imaging was performed on an inverted Nikon Eclipse Ti2 microscope equipped with a SPECTRA X light engine (Lumencore), 20× objective (NA=0.75, Nikon), and imaged onto a scientific CMOS camera (Hamamatsu ORCA-Flash 4.0). […]
Brightness comparison: The brightness of 12AM, jRGECO1a and jRCaMP1b in neurons were compared under the same illumination conditions. The fluorescence emission in each field of view was background subtracted and normalized by the emission of the fused EGFP to account for differences in expression levels among neurons.

[10] = tested on: primary cilium in hRPE1 cells expressing 5HT6-HaloTag; conditions: Ca2+ uncaging with 405 nm light
Description: Tet-on 5HT6-HaloTag RPE cells were plated in 8-well Labtek II chambers (Invitrogen) in 10% FBS DMEM:F12 media. The next day, the cells were serum deprived with 0% FBS DMEM:F12 medium with 100 ng/ml doxycycline to induce 5HT6-HaloTag expression. After 24 h of serum deprivation and doxycycline induction, cells were labeled with 1 μM 13AM overnight. After rinsing in DMEM:F12, the cells were loaded with 4 μM NP-EGTA, AM (ThermoFisher N6803) for 1 h. The medium was then replaced by DMEM Fluorobrite (ThermoFisher) for imaging in a 37° C., 5% CO2 chamber on an inverted Zeiss 880 with Airyscan. For each single cilium, 405 nm laser light (100%, 15 mW, 3s) uncaged free Ca^2+ from NP-EGTA in a 50-70 μm^2 area. Airyscan images were acquired at 0.5-0.8 s/stack for a total of 100 stacks (50-80 s) with 633 laser lines (13AM). Calcium uncaging was performed at the 50th stack. Change in intensity values were calculated in ImageJ using a maximum intensity projection series.

[11] = cultured hippocampal neurons loaded with AM ester

Compound	λmax [1]	λem [1] [nm]	ΔF/F0 ([2]; in vitro)	ϕsat [3]	Kd [2] [nM]	other results
O=C(O)CN(CC(=O)O)c1ccc(NC(=O)C2CN(c3ccc4c(-c5ccccc5C(=O)O)c5ccc(=[N+]6CCC6)cc-5oc4c3)C2)cc1OCCOc1cc(NC(=O)C2C[N+](=c3ccc4c(-c5ccccc5C(=O)O)c5ccc(N6CCC6)cc5oc-4c3)C2)ccc1N(CC(=O)O)CC(=O)O (stereo not drawn) [Compound 9, 3″-BAPTA-bisJF549]	512-549 nm	570	75.0	0.20		
O=C(O)CN(CC(=O)O)c1ccccc1OCCOc1cc(NC(=O)C2CN(c3ccc4c(-c5ccccc5C(=O)[O-])c5ccc(=[N+]6CC(C(=O)Nc7ccc(N(CC(=O)O)CC(=O)O)c(OCCOc8ccccc8N(CC(=O)O)CC(=O)O)c7)C6)cc-5oc4c3)C2)ccc1N(CC(=O)O)CC(=O)O (stereo not drawn) [Compound 8, 3″,3″′-bisBAPTA-JF549]	543 nm	566	47.0	0.70	730	
3″-BAPTA-JF549 tetra-acetoxymethyl ester [Compound 7AM]						saturating number of APs [4, 11]: 40 APs; ΔF/F0, single AP [4, 11]: 0.20; maximal ΔF/F0 ([4]; cultured hippocampal neurons loaded with AM ester, at saturation): 0.80; brightness compared to cells loaded with 2AM ([4]; cultured neurons): 10 ×; ΔF/F0 compared to cells loaded with 2AM ([4]; cultured neurons): 10 ×
3″-BAPTA-JF549-HaloTag ligand [Compound 12]	553 nm	573	9.5	0.78	130	
C[Si]1(C)c2cc(N3CCC3)ccc2C2(OC(=O)c3ccc(C(=O)NCCOCCOCCCCCCCl)cc32)c2ccc(N3CC(C(=O)Nc4ccc(N(CC(=O)O)CC(=O)O)c(OCCOc5ccccc5N(CC(=O)O)CC(=O)O)c4)C3)cc21 (stereo not drawn) [Compound 13, 3″-BAPTA-JF646-HaloTag ligand]	646 nm	666	7.8	0.58	280	increase in fluorescence upon binding to HaloTag [5]: 2.4 fold
O=C(O)CN(CC(=O)O)c1ccccc1OCCOc1cc(NC(=O)c2ccc(-c3c4ccc(=[N+]5CCC5)cc-4oc4cc(N5CCC5)ccc34)c(C(=O)[O-])c2)ccc1N(CC(=O)O)CC(=O)O [Compound 3, 5-BAPTA-JF549]	554 nm	579	2.3	0.69	190	
O=C(O)CN(CC(=O)O)c1ccccc1OCCOc1cc(NC(=O)C2CC/[N+]2=c2/ccc3c(-c4ccccc4C(=O)[O-])c4ccc(N5CCC5)cc4oc-3c2)ccc1N(CC(=O)O)CC(=O)O (stereo not drawn) [Compound 6, 2″-BAPTA-JF549]	542 nm	566	27.7	0.45	270	
O=C(O)CN(CC(=O)O)c1ccccc1OCCOc1cc(NC(=O)C2C[N+](=c3ccc4c(-c5ccccc5C(=O)[O-])c5ccc(N6CCC6)cc5oc-4c3)C2)ccc1N(CC(=O)O)CC(=O)O (stereo not drawn) [Compound 7, 3″-BAPTA-JF549]	546 nm	569	15.0	0.75	310	red-shift of λex and λem relative to compound 1 [1]: 50 nm
Calcium Orange [Compound 2]						λem ([6]; literature value (ref. 15)): 574 nm; λmax ([6]; literature value (ref. 15)): 549 nm; excitation maxima (λex) ([6]; literature value): 549 nm; ϕsat [7]: 0.33; Kd [8]: 185 nM; ΔF/F0 [8]: 3
3″-BAPTA-JF549-HaloTag ligand tetra acetoxymethyl ester [Compound 12AM]						baseline fluorescence, brighter than jRCaMP1b [9]: 3.6 fold; baseline fluorescence, brighter than jRGECO1a [9]: 7.8 fold
Oregon Green BAPTA-1 [Compound 1]						Kd [8]: 170 nM; ΔF/F0 [8]: 14
CN(C(=O)c1cccc(C(=O)O)c1-c1c2ccc(=[N+]3CCC3)cc-2oc2cc(N3CCC3)ccc12)c1ccc(N(CC(=O)O)CC(=O)O)c(OCCOc2ccccc2N(CC(=O)O)CC(=O)O)c1 [Compound 5, 7-MeBAPTA-JF549]	565 nm	583	14	0.18	570	
O=C(O)CN(CC(=O)O)c1ccccc1OCCOc1cc(NC(=O)c2ccc(C(=O)[O-])c(-c3c4ccc(=[N+]5CCC5)cc-4oc4cc(N5CCC5)ccc34)c2)ccc1N(CC(=O)O)CC(=O)O [Compound 4, 6-BAPTA-JF549]	555 nm	576	4.6	0.78	350	improvement in ΔF/F0 compared to 3 ([2]; in vitro): 2 fold
O=C(O)CN(CC(=O)O)c1ccccc1OCCOc1cc(NC(=O)C2C[N+](=c3ccc4c(-c5cc(C(=O)NCCOCCOCCCCCCCl)ccc5C(=O)[O-])c5ccc(N6CCC6)cc5oc-4c3)C2)ccc1N(CC(=O)O)CC(=O)O (stereo not drawn) [Compound 12, 3″-BAPTA-JF549-HaloTag ligand]	550 nm	574	14 and 13.8	0.74	290	
3″-BAPTA-JF646-HaloTag ligand tetra acetoxymethyl ester [Compound 13AM]						ΔF/F0, single AP ([4]; cultured hippocampal neurons expressing NES-HaloTag-GFP): 0.11; ΔF/F0 across the entire cilium [10]: 0.60
